Measurements taken from patent US20250222011A1, “DRUG TARGET FOR INHIBITING TUMOR, USE, AND ORAL DRUG” (CHI BIOTECH CO., LTD., priority 2024, published 2025).

Key:
Format in all cases: cell-based
[1] = test system: liver cancer cells; assay: Proliferation of liver cancer cells (other experiments)
[2] = test system: ovarian cancer cells; assay: Apoptosis of ovarian cancer cells (other experiments)
[3] = test system: SOX2; assay: Western blotting of SOX2 expression after ATCA treatment; details: FIG. 4
[4] = test system: nascent peptides; assay: Detection of nascent peptides (puromycin labelling, Western blotting); details: 1 mg/mL, FIG. 6
Procedure: Detection of nascent peptides: the cells were plated in a 6-well plate, with 200,000 cells in each well. After 24 h of adhesion, ATCA was added to make a working solution at a concentration of 1 mg/mL, while the control group was replaced with new medium. The experimental and control groups were treated for 2 h, 6 h, 12 h, 24 h, and 48 h separately, […], and cycloheximide was added to the positive control group for 10 min of treatment 25 min before sample collection. 10 μg/μL puromycin-labeled nascent peptide was added to all wells for 15 min, the medium was aspirated, the cells were washed twice with PBS, added with IP & WB lysis buffer to allow lysis on ice for 30 min, and centrifuged at 12,000 g for 20 min at 4° C. A resulting supernatant was transferred to a new centrifuge tube, 10 μg of protein was added to 5×SDS Loading Buffer, denatured in a 100° C. water bath for 10 min, and quantitatively detected by Western blotting. Western Blotting: the sample and molecular standard of pre-stained protein were loaded onto an SDS-PAGE gel (10 cm×10 cm) to allow electrophoresis at 100 V for 40 min. The proteins in SDS-PAGE were transferred to nitrocellulose membrane at 100 V, 230 mA within 1 h. After transfer, the nitrocellulose membrane was washed with 25 mL of TBS for 5 min at room temperature. […]

For O=C(O)C1=CC(=C(c2ccc(O)c(C(=O)O)c2)c2ccc(O)c(C(=O)O)c2)C=CC1=O [ATCA, aurintricarboxylic acid], the “proliferation of liver cancer cells” value [1] was “inhibit the proliferation”, the “apoptosis of ovarian cancer cells” value [2] was “induce apoptosis” and the SOX2 expression [3] was “downregulation”. The “protein synthesis (nascent peptides)” value ([4]; 2 h to 12 h after adding the drug) was “had not been significantly blocked” and the “number of new peptide chains compared with that without the drug” value ([4]; 24 h to 48 h after adding the drug) was “significantly reduced”.
